This passage reports Ki results from BindingDB's records for doi:10.1021/jm060732n (Mcgill University, 2006).

The term pKi denotes the Ki on a negative log10 scale, so that one unit is a factor of ten. The low end stands for a large Ki, the high end for a small Ki.

Molecules are shown by their SMILES. pKi: −log10 of the molar value.

A short description of the assay: Inhibition of Enterococcus faecium AAC(6')Ii.
`CC(C)(COP(=O)(O)OP(=O)(O)OC[C@H]1O[C@@H](n2cnc3c(N)ncnc32)[C@H](O)[C@@H]1OP(=O)(O)O)[C@@H](O)C(=O)NCCC(=O)NCCSCC(=O)NC[C@H]1O[C@H](O[C@H]2[C@H](O)[C@@H](O[C@H]3O[C@H](CO)[C@@H](O)[C@H](O)[C@H]3O[C@@H]3O[C@H](CO)[C@@H](O)[C@H]3O)[C@H](N)C[C@@H]2N)[C@H](N)[C@@H](O)[C@@H]1O` [truncated aminoglycoside-coenzyme A bisubstrate analogue 3] showed a pKi of 6.92.
With `CC(C)(COP(=O)(O)OP(=O)(O)OC[C@H]1O[C@@H](n2cnc3c(N)ncnc32)[C@H](O)[C@@H]1OP(=O)(O)O)[C@@H](O)C(=O)NCCC(=O)NCCSCC(=O)NC[C@H]1O[C@H](O[C@H]2[C@H](O)[C@@H](O[C@H]3O[C@H](CO)[C@@H](O)[C@H](N)[C@H]3O)[C@H](N)C[C@@H]2N)[C@H](O)[C@@H](O)[C@@H]1O` the figure was 6.96.
Under `CC(C)(COP(=O)(O)OP(=O)(O)OC[C@H]1O[C@@H](n2cnc3c(N)ncnc32)[C@H](O)[C@@H]1OP(=O)(O)O)[C@@H](O)C(=O)NCCC(=O)NCCSCCCCC(=O)NC[C@H]1O[C@H](O[C@H]2[C@H](O)[C@@H](O)[C@H](N)C[C@@H]2N)[C@H](N)[C@@H](O)[C@@H]1O` [[(2R,3S,4R,5R)-5-(6-amino-9H-purin-9-yl)-4-hydroxy-3-(phosphonatooxy)oxolan-2-yl]methyl {[(3R)-3-({2-[(2-{[4-({[(2R,3S,4R,5R,6R)-5-amino-6-{[(1R,2R,3S,4R,6S)-4,6-diamino-2,3-dihydroxycyclohexyl]oxy}-3,4-dihydroxyoxan-2-yl]methyl}carbamoyl)butyl]sulfanyl}ethyl)carbamoyl]ethyl}carbamoyl)-3-hydroxy-2,2-dimethylpropylphosphonato]oxy}phosphonate] stands 5.10; under `CC(C)(COP(=O)(O)OP(=O)(O)OC[C@H]1O[C@@H](n2cnc3c(N)ncnc32)[C@H](O)[C@@H]1OP(=O)(O)O)[C@@H](O)C(=O)NCCC(=O)NCCSCCC(=O)NC[C@H]1O[C@H](O[C@H]2[C@H](O)[C@@H](O)[C@H](N)C[C@@H]2N)[C@H](N)[C@@H](O)[C@@H]1O` [truncated aminoglycoside-coenzyme A bisubstrate analogue 1b], 7.37; under `CC(C)(COP(=O)(O)OP(=O)(O)OC[C@H]1O[C@@H](n2cnc3c(N)ncnc32)[C@H](O)[C@@H]1OP(=O)(O)O)[C@@H](O)C(=O)NCCC(=O)NCCSCC(=O)NC[C@H]1O[C@H](O[C@H]2[C@H](O)[C@@H](O)[C@H](N)C[C@@H]2N)[C@H](N)[C@@H](O)[C@@H]1O` [[(2R,3S,4R,5R)-5-(6-amino-9H-purin-9-yl)-4-hydroxy-3-(phosphonatooxy)oxolan-2-yl]methyl {[(3R)-3-({2-[(2-{[({[(2R,3S,4R,5R,6R)-5-amino-6-{[(1R,2R,3S,4R,6S)-4,6-diamino-2,3-dihydroxycyclohexyl]oxy}-3,4-dihydroxyoxan-2-yl]methyl}carbamoyl)methyl]sulfanyl}ethyl)carbamoyl]ethyl}carbamoyl)-3-hydroxy-2,2-dimethylpropylphosphonato]oxy}phosphonate], 7.12.
Under `CC(C)(COP(=O)(O)OP(=O)(O)OC[C@H]1O[C@@H](n2cnc3c(N)ncnc32)[C@H](O)[C@@H]1OP(=O)(O)O)[C@@H](O)C(=O)NCCC(=O)NCCSCCCC(=O)NC[C@H]1O[C@H](O[C@H]2[C@H](O)[C@@H](O)[C@H](N)C[C@@H]2N)[C@H](N)[C@@H](O)[C@@H]1O` [truncated aminoglycoside-coenzyme A bisubstrate analogue 1c] stands 6.79.
